Legend:
Format in all cases: cell-based
LNCaP cells = experiment: Inhibition of LNCaP cell proliferation (WST-8); settings: Homo sapiens, LNCaP FGC cells, 96 hours
Outline: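 Cells were seeded and cultured overnight at 37 °C, 5% CO2, then exposed for 96 h to compound at 9 concentrations, 5-fold serial dilution from 10 µM final. Viability was read by WST-8 absorbance at 450 nm.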

AR protein = target: T1, AR protein (Homo sapiens, UniProt P10275, T878A); experiment: AR protein degradation in LNCaP cells (Western blot); settings: 8 hours; for percent AR protein degradation at a fixed concentration at 0.01 µM / Degradation of AR protein in LNCaP cells, 10 nM (%): 10 nM; for percent AR protein degradation at a fixed concentration at 0.1 µM / Degradation of AR protein in LNCaP cells, 100 nM (%): 100 nM
T1 construct: host or cells: LNCaP FGC
T1 sequence (P10275 1-920 T878A): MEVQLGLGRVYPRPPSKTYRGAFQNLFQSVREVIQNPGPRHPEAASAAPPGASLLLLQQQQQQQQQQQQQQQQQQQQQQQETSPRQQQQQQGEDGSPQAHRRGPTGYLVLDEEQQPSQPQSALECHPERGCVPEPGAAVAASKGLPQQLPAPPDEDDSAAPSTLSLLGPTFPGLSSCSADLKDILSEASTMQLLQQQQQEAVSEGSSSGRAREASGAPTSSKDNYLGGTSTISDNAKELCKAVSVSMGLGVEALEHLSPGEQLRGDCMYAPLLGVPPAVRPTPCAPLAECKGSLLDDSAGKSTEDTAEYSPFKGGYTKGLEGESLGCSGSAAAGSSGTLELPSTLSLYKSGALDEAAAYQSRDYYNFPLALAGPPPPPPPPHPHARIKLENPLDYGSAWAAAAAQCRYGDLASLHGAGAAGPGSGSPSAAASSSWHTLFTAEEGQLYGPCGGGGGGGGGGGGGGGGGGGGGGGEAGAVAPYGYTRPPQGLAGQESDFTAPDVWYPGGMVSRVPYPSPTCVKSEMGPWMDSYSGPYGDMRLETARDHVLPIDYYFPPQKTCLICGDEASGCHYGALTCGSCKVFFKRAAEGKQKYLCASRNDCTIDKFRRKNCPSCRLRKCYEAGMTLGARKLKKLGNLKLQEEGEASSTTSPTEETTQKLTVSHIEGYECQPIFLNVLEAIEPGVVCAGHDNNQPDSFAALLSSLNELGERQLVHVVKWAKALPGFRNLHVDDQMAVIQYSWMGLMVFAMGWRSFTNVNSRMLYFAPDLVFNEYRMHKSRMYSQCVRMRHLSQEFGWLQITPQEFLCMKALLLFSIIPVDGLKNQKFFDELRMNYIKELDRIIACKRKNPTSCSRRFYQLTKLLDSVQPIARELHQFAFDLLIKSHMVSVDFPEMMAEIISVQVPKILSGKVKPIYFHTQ
Outline: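 LNCaP cells exposed to compound or solvent control for 8 h, lysed in RIPA, protein normalized by BCA. AR detected by SDS-PAGE/Western blot with infrared imaging; band grayscale normalized to GAPDH to calculate AR degradation rate.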

VCaP cells = experiment: Inhibition of VCaP cell proliferation (WST-8); settings: Homo sapiens, 168 hours
Outline: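 VCaP cells seeded at 15,000/well in DMEM + 10% FBS, treated next day with nine 5-fold dilutions from 10 µM (final) at 37°C, 5% CO2. Viability read by WST-8 absorbance at 450 nm on day 9.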

SMILES	IC50 (LNCaP cells)	IC50 (VCaP cells)	Degradation of AR protein in LNCaP cells, 10 nM (%) (AR protein)	Degradation of AR protein in LNCaP cells, 100 nM (%) (AR protein)	percent AR protein degradation at a fixed concentration at 0.01 µM (AR protein)	percent AR protein degradation at a fixed concentration at 0.1 µM (AR protein)
C[C@H]1CC2(CCN(c3ccc(N4CCC(CN5CCC6(CC5)COc5ccc7c(c56)n(C)c(=O)n7C5CCC(=O)NC5=O)CC4)cc3)CC2)CN1c1ccc(C#N)c(Cl)c1 (stereo partly drawn) [A-P-26, 2-chloro-4-((3 S)-8-(4-(4-((3-((2,6-dioxopiperidin-3-yl))-1-methyl-2-oxo-2,3-dihydro-1H,7H-spiro[benzofuro[4,5-d]imidazole-8,4'-piperidin]-1'-yl)methyl)piperidin-1-yl)phenyl)-3-methyl-2,8-diazaspiro[4.5]decan-2-yl)benzonitrile]	4.91 µM	0.034 µM	–	–	48%	65%
COc1cc(O[C@H]2C(C)(C)[C@H](NC(=O)c3ccc(N4CCC(N5CCC6(CC5)COc5c6ccc6c5n(C)c(=O)n6C5CCC(=O)NC5=O)CC4)cc3)C2(C)C)ccc1C#N (stereo partly drawn) [A-P-29]	15.1 µM	0.019 µM	–	–	6%	-27%
COc1cc(O[C@H]2C(C)(C)[C@H](NC(=O)c3ccc(N4CCC(CN5CCC6(CCc7cc(C(=O)N[C@H]8CCC(=O)NC8=O)c(F)cc7O6)CC5)CC4)cc3)C2(C)C)ccc1C#N [A-P-30]	1.48 µM	1 µM	41%	78%	–	–
C[C@H]1CC2(CCN(c3ccc(C(=O)N4CCC(CN5CCC6(CCc7cc(C(=O)N[C@H]8CCC(=O)NC8=O)c(F)cc7O6)CC5)CC4)cc3)CC2)CN1c1ccc(C#N)c(Cl)c1 [A-P-35, 1'-((1-(4-((S)-2-(3-chloro-4-cyanophenyl)-3-methyl-2,8-diazaspiro[4.5]decan-8-yl)benzoyl)piperidin-4-yl)methyl)-N-((S)-2,6-dioxopiperidin-3-yl)-7-fluorospiro[chroman-2,4'-piperidin]-6-carboxamide]	0.28 µM	0.004 µM	–	–	61%	70%
COc1cc(O[C@H]2C(C)(C)[C@H](NC(=O)c3ccc(N4CCC(CN5CCC6(CCc7cc(F)c(C(=O)N[C@H]8CCC(=O)NC8=O)cc7O6)CC5)CC4)cc3)C2(C)C)ccc1C#N [A-P-39]	12.4 µM	> 10 µM	22%	39%	–	–
C[C@H]1CC2(CCN(c3ccc(N4CCC(CN5CCC6(CCc7cc(C(=O)N[C@H]8CCC(=O)NC8=O)c(F)cc7O6)CC5)CC4)cc3)CC2)CN1c1ccc(C#N)c(Cl)c1 [A-P-42, 1'-((1-(4-((S)-2-(3-chloro-4-cyanophenyl)-3-methyl-2,8-diazaspiro[4.5]decan-8-yl)phenyl)piperidin-4-yl)methyl)-N-((S)-2,6-dioxopiperidin-3-yl)-7-fluorospiro[chroman-2,4'-piperidin]-6-carboxamide]	0.19 µM	> 10 µM	–	–	44%	77%

Further lines, with some results ahead:

IC50 (LNCaP cells)	IC50 (VCaP cells)	Degradation of AR protein in LNCaP cells, 10 nM (%) (AR protein)	Degradation of AR protein in LNCaP cells, 100 nM (%) (AR protein)	SMILES	percent AR protein degradation at a fixed concentration at 0.01 µM (AR protein)	percent AR protein degradation at a fixed concentration at 0.1 µM (AR protein)
0.58 µM	3.17 µM	–	–	COc1cc(O[C@H]2C(C)(C)[C@H](NC(=O)c3ccc(N4CCC(C)(CN5CCC6(CCc7cc(C(=O)N[C@H]8CCC(=O)NC8=O)c(F)cc7O6)CC5)CC4)cc3)C2(C)C)ccc1C#N [A-P-31, 1'-((1-((4-((1r,3r)-3-(4-cyano-3-methoxyphenoxy)-2,2,4,4-tetramethylcyclobutyl)carbamoyl)phenyl)-4-methylpiperidin-4-yl)methyl)-N-((S)-2,6-dioxopiperidin-3-yl)-7-fluorospiro[2,4'-piperidin]-6-carboxamide]	47%	71%
1.58 µM	0.45 µM	84%	85%	COc1cc(O[C@H]2C(C)(C)[C@H](NC(=O)c3ccc(N4CCC(CN5CCC6(CCc7cc(C(=O)N[C@H]8CCC(=O)NC8=O)c(F)cc7O6)CC5)CC4)nc3)C2(C)C)ccc1C#N [A-P-33, 1'-((1-(5-(((1R,3R)-3-(4-cyano-3-methoxyphenoxy)-2,2,4,4-tetramethylcyclobutyl)carbamoyl)pyridin-2-yl)piperidin-4-yl)methyl)-N-((S)-2,6-dioxopiperidin-3-yl)-7-fluorospiro[chroman-2,4'-piperidin]-6-carboxamide]	–	–
0.87 µM	0.00029 µM	72%	85%	COc1cc(O[C@H]2C(C)(C)[C@H](NC(=O)c3ccc(N4CCC(CN5CCC6(CCc7cc(C(=O)N[C@H]8CCC(=O)NC8=O)c(F)cc7O6)CC5)CC4)nn3)C2(C)C)ccc1C#N [A-P-34, 1'-((1-(6-(((1R,3R)-3-(4-cyano-3-methoxyphenoxy)-2,2,4,4-tetramethylcyclobutyl)carbamoyl)pyridazin-3-yl)piperidin-4-yl)methyl)-N-((S)-2,6-dioxopiperidin-3-yl)-7-fluorospiro[chroman-2,4'-piperidin]-6-carboxamide]	–	–
0.82 µM	1.66 µM	52%	70%	COc1cc(O[C@H]2C(C)(C)[C@H](NC(=O)c3ccc(N4CCC(CN5CCC6(CCc7cc(C(=O)N[C@H]8CCC(=O)NC8=O)c(F)cc7O6)CC5)(OC)CC4)cc3)C2(C)C)ccc1C#N [A-P-36]	–	–
2.23 µM	2.89 µM	10%	63%	COc1cc(O[C@H]2C(C)(C)[C@H](NC(=O)c3ccc(N4CCC5(CC4)CC(N4CCC6(CCc7cc(C(=O)N[C@H]8CCC(=O)NC8=O)c(F)cc7O6)CC4)C5)cc3)C2(C)C)ccc1C#N [A-P-37, 1'-(7-(4-(((1R,3R)-3-(4-cyano-3-methoxyphenoxy)-2,2,4,4-tetramethylcyclobutyl)carbamoyl)phenyl)-7-azaspiro[3.5]nonan-2-yl)-N-((S)-2,6-dioxopiperidin-3-yl)-7-fluorospiro[chroman-2,4'-piperidin]-6-carboxamide]	–	–
1.49 µM	> 10 µM	-2%	0%	COc1cc(O[C@H]2C(C)(C)[C@H](NC(=O)c3ccc(N4CCC(C)(CN5CCC6(CCc7cc(F)c(C(=O)N[C@H]8CCC(=O)NC8=O)cc7O6)CC5)CC4)cc3)C2(C)C)ccc1C#N [A-P-38, 1-(1-(4-((1R,3R)-3-((4-cyano-3-methoxyphenoxy)-2,2,4,4-tetramethylcyclobutyl)carbamoyl)phenyl)-4-methylpiperidin-4-methyl)-N-((S)-2,6-dioxopiperidin-3-yl)-6-fluorospiro[chroman-2,4'-piperidin]-7-carboxamide]	–	–
6.56 µM	> 10 µM	26%	46%	COc1cc(O[C@H]2C(C)(C)[C@H](NC(=O)c3ccc(N4CCC(CN5CCC6(CCc7cc(F)c(C(=O)N[C@H]8CCC(=O)NC8=O)cc7O6)CC5)(OC)CC4)cc3)C2(C)C)ccc1C#N [A-P-40]	–	–
18.6 µM	> 10 µM	-37%	-31%	COc1cc(O[C@H]2C(C)(C)[C@H](NC(=O)c3ccc(N4CCC(F)(CN5CCC6(CCc7cc(F)c(C(=O)N[C@H]8CCC(=O)NC8=O)cc7O6)CC5)CC4)cc3)C2(C)C)ccc1C#N [A-P-41]	–	–
0.36 µM	1.55 µM	8%	35%	COc1cc(O[C@H]2C(C)(C)[C@H](NC(=O)c3ccc(N4CCC(C)(CN5CCC6(CCc7cc(C(=O)N[C@H]8CCC(=O)NC8=O)c(F)cc7O6)CC5)CC4)cn3)C2(C)C)ccc1C#N [A-P-43, 1'-((1-(6-(((1r,3r)-3-(4-cyano-3-methoxyphenoxy)-2,2,4,4-tetramethylcyclobutyl)carbamoyl)pyridin-3-yl)-4-methylpiperidin-4-yl)methyl)-N-((S)-2,6-dioxopiperidin-3-yl)-7-fluorospiro[chroman-2,4'-piperidin]-6-carboxamide]	–	–
